Here are results for three compounds from paper PMC12518996 (Frontiers in Pharmacology, 2025).

Sequence of CYP3A4 (P08684 whole entry): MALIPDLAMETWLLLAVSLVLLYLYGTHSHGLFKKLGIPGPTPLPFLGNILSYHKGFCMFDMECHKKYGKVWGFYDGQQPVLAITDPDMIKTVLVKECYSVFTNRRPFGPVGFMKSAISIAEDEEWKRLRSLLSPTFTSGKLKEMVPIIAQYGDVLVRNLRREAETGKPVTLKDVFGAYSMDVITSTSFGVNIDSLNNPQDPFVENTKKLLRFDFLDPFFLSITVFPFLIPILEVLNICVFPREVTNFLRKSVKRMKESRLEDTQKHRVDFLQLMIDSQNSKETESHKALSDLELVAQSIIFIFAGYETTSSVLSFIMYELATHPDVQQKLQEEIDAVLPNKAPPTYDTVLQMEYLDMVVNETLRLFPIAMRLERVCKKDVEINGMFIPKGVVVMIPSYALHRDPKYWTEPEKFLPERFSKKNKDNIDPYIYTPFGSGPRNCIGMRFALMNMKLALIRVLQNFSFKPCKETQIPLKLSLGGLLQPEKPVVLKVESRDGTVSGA
Sequence of CYP2D6 (P10635 whole entry): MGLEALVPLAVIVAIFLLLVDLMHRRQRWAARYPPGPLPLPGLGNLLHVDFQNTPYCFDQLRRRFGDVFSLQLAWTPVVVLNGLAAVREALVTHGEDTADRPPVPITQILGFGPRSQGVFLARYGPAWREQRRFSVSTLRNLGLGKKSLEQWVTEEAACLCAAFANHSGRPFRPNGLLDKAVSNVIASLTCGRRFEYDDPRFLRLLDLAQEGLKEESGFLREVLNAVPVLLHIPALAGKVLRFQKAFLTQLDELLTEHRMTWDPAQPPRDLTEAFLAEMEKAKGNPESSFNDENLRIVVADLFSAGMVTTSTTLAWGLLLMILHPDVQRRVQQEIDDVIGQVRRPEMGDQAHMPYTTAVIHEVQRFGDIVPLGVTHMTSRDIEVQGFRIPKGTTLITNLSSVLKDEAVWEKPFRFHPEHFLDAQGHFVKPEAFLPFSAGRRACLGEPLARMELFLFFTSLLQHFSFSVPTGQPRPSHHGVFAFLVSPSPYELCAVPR
Sequence of CYP2C9 (P11712 whole entry): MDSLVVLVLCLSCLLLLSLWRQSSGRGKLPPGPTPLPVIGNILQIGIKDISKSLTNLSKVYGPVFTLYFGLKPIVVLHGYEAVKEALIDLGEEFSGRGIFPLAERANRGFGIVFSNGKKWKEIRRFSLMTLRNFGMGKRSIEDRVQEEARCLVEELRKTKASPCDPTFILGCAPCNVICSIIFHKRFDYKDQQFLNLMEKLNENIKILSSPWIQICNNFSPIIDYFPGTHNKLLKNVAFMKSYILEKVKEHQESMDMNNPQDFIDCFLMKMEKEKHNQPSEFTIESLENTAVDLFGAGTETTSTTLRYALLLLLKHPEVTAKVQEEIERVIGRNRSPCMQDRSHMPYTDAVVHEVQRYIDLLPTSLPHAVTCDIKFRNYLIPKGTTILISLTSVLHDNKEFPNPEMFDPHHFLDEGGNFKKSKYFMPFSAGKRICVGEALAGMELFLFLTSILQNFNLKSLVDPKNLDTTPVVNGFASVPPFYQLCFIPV

The first data set concerns the target T1, CYP2A6 (Homo sapiens, UniProt P11509).
T1 sequence (P11509 1-494): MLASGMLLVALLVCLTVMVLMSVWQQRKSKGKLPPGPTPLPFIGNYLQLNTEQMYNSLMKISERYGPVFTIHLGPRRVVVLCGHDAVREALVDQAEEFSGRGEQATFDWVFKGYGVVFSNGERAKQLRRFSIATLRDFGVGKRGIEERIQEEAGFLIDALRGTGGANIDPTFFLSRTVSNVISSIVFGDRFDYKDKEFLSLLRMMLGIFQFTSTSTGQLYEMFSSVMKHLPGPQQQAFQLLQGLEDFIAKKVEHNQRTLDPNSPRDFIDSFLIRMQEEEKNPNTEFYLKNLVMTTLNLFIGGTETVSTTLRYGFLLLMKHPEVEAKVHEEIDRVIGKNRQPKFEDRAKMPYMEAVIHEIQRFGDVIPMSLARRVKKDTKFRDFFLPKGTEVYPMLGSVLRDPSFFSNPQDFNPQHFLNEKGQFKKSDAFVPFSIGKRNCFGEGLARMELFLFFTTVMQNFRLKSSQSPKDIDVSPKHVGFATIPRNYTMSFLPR
Nature of the data set: Metabolite formation by recombinant human CYP2A6. The format is in vitro ADME. Conditions: trazodone 4 μM; NADPH; 37 °C, 40 min. Here is the method:
(§1) To confirm the role of individual CYP isoforms in metabolizing trazodone, recombinant human and rat CYP enzymes were employed in separate incubations. […] Each reaction was terminated with acetonitrile, centrifuged, and the supernatant was analyzed by identical UHPLC-Orbitrap setup outlined in §2.2, allowing direct comparison of metabolite spectra across all in-vitro systems. […] This procedure helped confirm the contributions of individual isoforms to specific biotransformation reactions.
Regarding `O=c1n(CCCN2CCNCC2)nc2ccccn12` [Metabolite M15], the “Formation of trazodone phase I metabolite by recombinant human CYP2A6 (as LC/MS peak areas)” value stood at 0.

For the compound `O=c1n(CCCO)nc2ccccn12` [Metabolite M20], the “Formation of trazodone phase I metabolite by recombinant human CYP2A6 (as LC/MS peak areas)” value amounted to 0.

`Clc1cccc(N2CCNCC2)c1` [mCPP, m-chlorophenylpiperazine]: the “Formation of trazodone phase I metabolite by recombinant human CYP2A6 (as LC/MS peak areas)” value was determined as 8.

The target in another data set is CYP2C9 (Homo sapiens, UniProt P11712). Nature of the data set: Metabolite formation by recombinant human CYP2C9. The format is in vitro ADME. The following applies: trazodone 4 μM; NADPH; 37 °C, 40 min. Here is the method:
(§2) Each reaction was terminated with acetonitrile, centrifuged, and the supernatant was analyzed by identical UHPLC-Orbitrap setup outlined in §2.2, allowing direct comparison of metabolite spectra across all in-vitro systems.
Turning to `O=c1n(CCCN2CCNCC2)nc2ccccn12` [Metabolite M15], the “Formation of trazodone phase I metabolite by recombinant human CYP2C9 (as LC/MS peak areas)” value is recorded as 0.

With `O=c1n(CCCO)nc2ccccn12` [Metabolite M20], the “Formation of trazodone phase I metabolite by recombinant human CYP2C9 (as LC/MS peak areas)” value was found to be 0.

`Clc1cccc(N2CCNCC2)c1` [mCPP, m-chlorophenylpiperazine]: the “Formation of trazodone phase I metabolite by recombinant human CYP2C9 (as LC/MS peak areas)” value is reported as 40.

In another data set the target is CYP2D6 (Homo sapiens, UniProt P10635). Nature of the data set: Metabolite formation by recombinant human CYP2D6. The format is in vitro ADME. The following applies: trazodone 4 μM; NADPH; 37 °C, 40 min. Here is the method:
as §1
For the compound `O=c1n(CCCN2CCNCC2)nc2ccccn12` [Metabolite M15], the “Formation of trazodone phase I metabolite by recombinant human CYP2D6 (as LC/MS peak areas)” value amounted to 0.

Turning to `O=c1n(CCCO)nc2ccccn12` [Metabolite M20], the “Formation of trazodone phase I metabolite by recombinant human CYP2D6 (as LC/MS peak areas)” value is 0.

In the case of `Clc1cccc(N2CCNCC2)c1` [mCPP, m-chlorophenylpiperazine], the “Formation of trazodone phase I metabolite by recombinant human CYP2D6 (as LC/MS peak areas)” value was found to be 0.

A further data set concerns the target CYP3A4 (Homo sapiens, UniProt P08684). Nature of the data set: Metabolite formation by recombinant human CYP3A4. The format is in vitro ADME. Conditions: trazodone 4 μM; NADPH; 37 °C, 40 min. Here is the method: as §2
In the case of `O=c1n(CCCN2CCNCC2)nc2ccccn12` [Metabolite M15], the “Formation of trazodone phase I metabolite by recombinant human CYP3A4 (as LC/MS peak areas)” value is given as 6716.

As to `O=c1n(CCCO)nc2ccccn12` [Metabolite M20], the “Formation of trazodone phase I metabolite by recombinant human CYP3A4 (as LC/MS peak areas)” value is 236.

Consider `Clc1cccc(N2CCNCC2)c1` [mCPP, m-chlorophenylpiperazine], for which the “Formation of trazodone phase I metabolite by recombinant human CYP3A4 (as LC/MS peak areas)” value came to 32991.

The next data set deals with CYP3A5 (Homo sapiens, UniProt P20815). Nature of the data set: Metabolite formation by recombinant human CYP3A5. The class given is in vitro ADME. The following applies: trazodone 4 μM; NADPH; 37 °C, 40 min. Here is the method: as §2
Sequence of CYP3A5 (P20815 whole entry): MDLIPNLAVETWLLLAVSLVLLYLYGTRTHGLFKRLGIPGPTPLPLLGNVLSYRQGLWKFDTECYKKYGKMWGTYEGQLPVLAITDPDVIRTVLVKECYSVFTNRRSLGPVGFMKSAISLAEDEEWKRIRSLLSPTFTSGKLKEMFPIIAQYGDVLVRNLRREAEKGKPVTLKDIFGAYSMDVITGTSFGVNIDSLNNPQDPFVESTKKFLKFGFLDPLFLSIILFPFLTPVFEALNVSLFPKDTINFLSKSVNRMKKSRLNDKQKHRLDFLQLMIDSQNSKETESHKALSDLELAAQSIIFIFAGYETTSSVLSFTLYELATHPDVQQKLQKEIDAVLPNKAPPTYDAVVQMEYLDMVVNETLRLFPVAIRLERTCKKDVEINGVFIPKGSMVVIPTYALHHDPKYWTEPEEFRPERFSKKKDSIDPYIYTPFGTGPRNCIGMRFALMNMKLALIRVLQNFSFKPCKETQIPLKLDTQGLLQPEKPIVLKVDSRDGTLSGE
With `O=c1n(CCCN2CCNCC2)nc2ccccn12` [Metabolite M15], the “Formation of trazodone phase I metabolite by recombinant human CYP3A5 (as LC/MS peak areas)” value stood at 3343.

On to `O=c1n(CCCO)nc2ccccn12` [Metabolite M20], for which the “Formation of trazodone phase I metabolite by recombinant human CYP3A5 (as LC/MS peak areas)” value amounted to 108.

Take `Clc1cccc(N2CCNCC2)c1` [mCPP, m-chlorophenylpiperazine]: the “Formation of trazodone phase I metabolite by recombinant human CYP3A5 (as LC/MS peak areas)” value worked out at 16847.

Another data set has as its target T2, CYP2C11 (Rattus norvegicus, UniProt P08683).
T2 sequence (P08683 1-500): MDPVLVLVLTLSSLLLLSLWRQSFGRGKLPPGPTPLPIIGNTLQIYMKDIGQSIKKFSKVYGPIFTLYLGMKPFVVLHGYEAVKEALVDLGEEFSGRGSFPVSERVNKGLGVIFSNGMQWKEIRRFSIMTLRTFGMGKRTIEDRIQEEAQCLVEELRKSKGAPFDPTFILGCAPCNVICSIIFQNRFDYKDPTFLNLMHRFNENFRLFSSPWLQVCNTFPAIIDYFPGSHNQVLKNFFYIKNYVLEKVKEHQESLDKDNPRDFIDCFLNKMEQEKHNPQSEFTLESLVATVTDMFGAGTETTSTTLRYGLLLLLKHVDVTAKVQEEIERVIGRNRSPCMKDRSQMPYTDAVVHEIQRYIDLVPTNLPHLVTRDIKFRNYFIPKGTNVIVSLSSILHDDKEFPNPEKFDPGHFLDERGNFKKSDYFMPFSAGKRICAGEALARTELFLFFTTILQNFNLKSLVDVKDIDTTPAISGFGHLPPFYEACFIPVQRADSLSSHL
Nature of the data set: Metabolite formation by recombinant rat CYP2C11. The class given is in vitro ADME. The following applies: trazodone 4 μM; NADPH; 37 °C, 40 min. Here is the method: as §1
Take `O=c1n(CCCN2CCNCC2)nc2ccccn12` [Metabolite M15]: the “Formation of trazodone phase I metabolite by recombinant rat CYP2C11 (as LC/MS peak areas)” value worked out at 1210.

Turning to `O=c1n(CCCO)nc2ccccn12` [Metabolite M20], the “Formation of trazodone phase I metabolite by recombinant rat CYP2C11 (as LC/MS peak areas)” value is on record as 743.

With `Clc1cccc(N2CCNCC2)c1` [mCPP, m-chlorophenylpiperazine], the “Formation of trazodone phase I metabolite by recombinant rat CYP2C11 (as LC/MS peak areas)” value was found to be 6920.

The next data set concerns CYP2D18. Nature of the data set: Metabolite formation by recombinant rat CYP2D18. The format is in vitro ADME. Conditions: trazodone 4 μM; NADPH; 37 °C, 40 min. Here is the method: as §1
Take `O=c1n(CCCN2CCNCC2)nc2ccccn12` [Metabolite M15]: the “Formation of trazodone phase I metabolite by recombinant rat CYP2D18 (as LC/MS peak areas)” value is 134.

`O=c1n(CCCO)nc2ccccn12` [Metabolite M20]: the “Formation of trazodone phase I metabolite by recombinant rat CYP2D18 (as LC/MS peak areas)” value is given as 240.

On to `Clc1cccc(N2CCNCC2)c1` [mCPP, m-chlorophenylpiperazine], for which the “Formation of trazodone phase I metabolite by recombinant rat CYP2D18 (as LC/MS peak areas)” value is reported as 1962.

The target in another data set is T3, CYP3A2 (Rattus norvegicus, UniProt P05183).
T3 sequence (P05183 1-504): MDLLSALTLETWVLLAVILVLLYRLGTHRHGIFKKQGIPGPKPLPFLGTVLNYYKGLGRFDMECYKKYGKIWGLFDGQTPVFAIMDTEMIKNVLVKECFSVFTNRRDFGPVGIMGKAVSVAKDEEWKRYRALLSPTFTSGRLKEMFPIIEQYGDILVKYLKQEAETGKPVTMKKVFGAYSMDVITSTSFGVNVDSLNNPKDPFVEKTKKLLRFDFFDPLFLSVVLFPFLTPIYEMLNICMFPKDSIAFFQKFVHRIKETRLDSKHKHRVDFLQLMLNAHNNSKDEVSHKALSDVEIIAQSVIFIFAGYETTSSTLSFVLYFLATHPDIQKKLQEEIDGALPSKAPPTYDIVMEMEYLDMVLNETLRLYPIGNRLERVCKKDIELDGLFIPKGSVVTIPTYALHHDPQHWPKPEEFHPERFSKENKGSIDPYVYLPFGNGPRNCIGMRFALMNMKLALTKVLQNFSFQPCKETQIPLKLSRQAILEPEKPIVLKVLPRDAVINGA
Nature of the data set: Metabolite formation by recombinant rat CYP3A2. The class given is in vitro ADME. The following applies: trazodone 4 μM; NADPH; 37 °C, 40 min. Here is the method:
as §2
`O=c1n(CCCN2CCNCC2)nc2ccccn12` [Metabolite M15]: the “Formation of trazodone phase I metabolite by recombinant rat CYP3A2 (as LC/MS peak areas)” value is 3368.

Take `O=c1n(CCCO)nc2ccccn12` [Metabolite M20]: the “Formation of trazodone phase I metabolite by recombinant rat CYP3A2 (as LC/MS peak areas)” value came to 5761.

Turning to `Clc1cccc(N2CCNCC2)c1` [mCPP, m-chlorophenylpiperazine], the “Formation of trazodone phase I metabolite by recombinant rat CYP3A2 (as LC/MS peak areas)” value is listed as 45534.

The next data set has as its target T4, CYP3A9 (Rattus norvegicus, UniProt P51538).
T4 sequence (P51538 1-503): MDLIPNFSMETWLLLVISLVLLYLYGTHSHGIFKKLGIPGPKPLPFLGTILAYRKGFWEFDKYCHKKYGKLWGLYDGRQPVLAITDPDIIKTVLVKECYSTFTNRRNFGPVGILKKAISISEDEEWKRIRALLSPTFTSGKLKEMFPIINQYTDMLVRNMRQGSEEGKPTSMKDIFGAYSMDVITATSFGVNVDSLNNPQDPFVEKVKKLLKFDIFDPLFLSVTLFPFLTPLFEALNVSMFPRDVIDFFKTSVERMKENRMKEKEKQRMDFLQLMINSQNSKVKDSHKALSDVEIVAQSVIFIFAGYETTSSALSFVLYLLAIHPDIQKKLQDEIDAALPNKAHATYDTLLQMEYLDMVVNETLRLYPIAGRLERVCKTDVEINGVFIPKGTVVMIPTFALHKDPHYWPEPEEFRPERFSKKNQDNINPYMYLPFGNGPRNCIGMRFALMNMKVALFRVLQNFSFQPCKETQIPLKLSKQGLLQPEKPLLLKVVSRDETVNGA
Nature of the data set: Metabolite formation by recombinant rat CYP3A9. The class given is in vitro ADME. The following applies: trazodone 4 μM; NADPH; 37 °C, 40 min. Here is the method:
as §2
Turning to `O=c1n(CCCN2CCNCC2)nc2ccccn12` [Metabolite M15], the “Formation of trazodone phase I metabolite by recombinant rat CYP3A9 (as LC/MS peak areas)” value came out at 719.

Consider `O=c1n(CCCO)nc2ccccn12` [Metabolite M20], for which the “Formation of trazodone phase I metabolite by recombinant rat CYP3A9 (as LC/MS peak areas)” value is recorded as 1080.

For the compound `Clc1cccc(N2CCNCC2)c1` [mCPP, m-chlorophenylpiperazine], the “Formation of trazodone phase I metabolite by recombinant rat CYP3A9 (as LC/MS peak areas)” value was found to be 18577.
